According to patent US6770596B1, “Fused tricyclic compounds, process for their preparation, and herbicidal compositions containing them” (Ishihara Sangyo Kaisha Ltd., priority 2002, dated 2004):

Tests used:
Format in all cases: in vivo
[1] = tested on: cocklebur (Xanthium strumariunt, XAS); assay: Post-emerge test, cocklebur; conditions: 250 g ai/ha, 14 days after application, rating scale 0-100 (0 no damage, 100 complete death)
Summary of the method: (§1)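 Seeds were planted in 10 cm pots of sandy loam soil mix 8-21 days ahead. Once the plants reached the 2-3 leaf stage, the compound was sprayed at 8-1000 g ai/ha (acetone, 187 l/ha, 0.25% v/v non-ionic surfactant). Damage was rated 0-100 after 14 days.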

[2] = tested on: field corn (Zea mays L., var. Dekalb 535, CORN); assay: Post-emerge test, crop damage field corn
Summary of the method: as §1

[3] = tested on: upland rice (Oryza sp., var.Tebonnet, RICE); assay: Post-emerge test, crop damage upland rice
Summary of the method: as §1

[4] = tested on: ivyleaf morningglory (Ipomoea hederacea, IPH); assay: Pre-emerge test, ivyleaf morningglory; conditions: 250 g ai/ha, 14 days after application, rating scale 0-100 (0 no damage, 100 complete death)
Summary of the method: (§2)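 Greenhouse pre-emergence screen: track-sprayer application of compounds in acetone at 187 l/ha, rates 8 g ai/ha to 1000 g ai/ha, one day after planting in sandy loam pots. Damage scored at 14 days, 0 (none) to 100 (all plants dead).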

[5] = tested on: common ragweed (Ambrosia artemisiifolia L., AML); assay: Post-emerge test, common ragweed; conditions: 250 g ai/ha, 14 days after application, rating scale 0-100 (0 no damage, 100 complete death)
Summary of the method: as §1

[6] = tested on: soybean (Glycine max L., var. Pella 86, SOY); assay: Pre-emerge test, crop damage soybean
Summary of the method: as §2

[7] = tested on: sicklepod (Cassia obtusifolia, CAO); assay: Post-emerge test, sicklepod; conditions: 250 g ai/ha, 14 days after application, rating scale 0-100 (0 no damage, 100 complete death)
Summary of the method: as §1

[8] = tested on: upland rice (Oryza sp., var.Tebonnet, RICE); assay: Pre-emerge test, crop damage upland rice
Summary of the method: as §2

[9] = tested on: johnsongrass (Sorghum halepense, SOH); assay: Pre-emerge test, johnsongrass; conditions: 250 g ai/ha, 14 days after application, rating scale 0-100 (0 no damage, 100 complete death)
Summary of the method: as §2

[10] = tested on: wheat (Triticum aestivum); assay: Post-emerge test, crop damage wheat
Summary of the method: as §1

[11] = tested on: lambsquarters (Chenopodium album, CHA); assay: Post-emerge test, lambsquarters; conditions: 250 g ai/ha, 14 days after application, rating scale 0-100 (0 no damage, 100 complete death)
Summary of the method: as §1

[12] = tested on: large crabgrass (Digitaria sanguinalis, DIS); assay: Pre-emerge test, large crabgrass; conditions: 250 g ai/ha, 14 days after application, rating scale 0-100 (0 no damage, 100 complete death)
Summary of the method: as §2

[13] = tested on: velvetleaf (Abutilon theophrasti, ABT); assay: Pre-emerge test, velvetleaf; conditions: 250 g ai/ha, 14 days after application, rating scale 0-100 (0 no damage, 100 complete death)
Summary of the method: as §2

[14] = tested on: soybean (Glycine max L., var. Pella 86, SOY); assay: Post-emerge test, crop damage soybean
Summary of the method: as §1

[15] = tested on: barnyardgrass (Echinachloa crus-galli, ECC); assay: Pre-emerge test, barnyardgrass; conditions: 250 g ai/ha, 14 days after application, rating scale 0-100 (0 no damage, 100 complete death)
Summary of the method: as §2

[16] = tested on: field corn (Zea mays L., var. Dekalb 535, CORN); assay: Pre-emerge test, crop damage field corn
Summary of the method: as §2

[17] = tested on: green foxtail (Setaria viridis, SEV); assay: Post-emerge test, green foxtail; conditions: 250 g ai/ha, 14 days after application, rating scale 0-100 (0 no damage, 100 complete death)
Summary of the method: as §1

[18] = tested on: green foxtail (Setaria viridis, SEV); assay: Pre-emerge test, green foxtail; conditions: 250 g ai/ha, 14 days after application, rating scale 0-100 (0 no damage, 100 complete death)
Summary of the method: as §2

[19] = tested on: lambsquarters (Chenopodium album, CHA); assay: Pre-emerge test, lambsquarters; conditions: 250 g ai/ha, 14 days after application, rating scale 0-100 (0 no damage, 100 complete death)
Summary of the method: as §2

[20] = tested on: barnyardgrass (Echinachloa crus-galli, ECC); assay: Post-emerge test, barnyardgrass; conditions: 250 g ai/ha, 14 days after application, rating scale 0-100 (0 no damage, 100 complete death)
Summary of the method: as §1

[21] = tested on: cocklebur (Xanthium strumariunt, XAS); assay: Pre-emerge test, cocklebur; conditions: 250 g ai/ha, 14 days after application, rating scale 0-100 (0 no damage, 100 complete death)
Summary of the method: as §2

[22] = tested on: common ragweed (Ambrosia artemisiifolia L., AML); assay: Pre-emerge test, common ragweed; conditions: 250 g ai/ha, 14 days after application, rating scale 0-100 (0 no damage, 100 complete death)
Summary of the method: as §2

[23] = tested on: wheat (Triticum aestivum); assay: Pre-emerge test, crop damage wheat
Summary of the method: as §2

[24] = tested on: velvetleaf (Abutilon theophrasti, ABT); assay: Post-emerge test, velvetleaf; conditions: 250 g ai/ha, 14 days after application, rating scale 0-100 (0 no damage, 100 complete death)
Summary of the method: as §1

[25] = tested on: sicklepod (Cassia obtusifolia, CAO); assay: Pre-emerge test, sicklepod; conditions: 250 g ai/ha, 14 days after application, rating scale 0-100 (0 no damage, 100 complete death)
Summary of the method: as §2

[26] = tested on: large crabgrass (Digitaria sanguinalis, DIS); assay: Post-emerge test, large crabgrass; conditions: 250 g ai/ha, 14 days after application, rating scale 0-100 (0 no damage, 100 complete death)
Summary of the method: as §1

[27] = tested on: johnsongrass (Sorghum halepense, SOH); assay: Post-emerge test, johnsongrass; conditions: 250 g ai/ha, 14 days after application, rating scale 0-100 (0 no damage, 100 complete death)
Summary of the method: as §1

[28] = tested on: redroot pigweed (Amaranthus retroflexus, AMR); assay: Pre-emerge test, redroot pigweed; conditions: 250 g ai/ha, 14 days after application, rating scale 0-100 (0 no damage, 100 complete death)
Summary of the method: as §2

[29] = tested on: ivyleaf morningglory (Ipomoea hederacea, IPH); assay: Post-emerge test, ivyleaf morningglory; conditions: 250 g ai/ha, 14 days after application, rating scale 0-100 (0 no damage, 100 complete death)
Summary of the method: as §1

[30] = tested on: redroot pigweed (Amaranthus retroflexus, AMR); assay: Post-emerge test, redroot pigweed; conditions: 250 g ai/ha, 14 days after application, rating scale 0-100 (0 no damage, 100 complete death)
Summary of the method: as §1

[31] = var. Dekalb 535, Zea mays (field corn), in vivo, 14 days
[32] = var. Tebonnet, Oryza sp. (upland rice), in vivo, 14 days
[33] = var. Pella 86, Glycine max (soybean), in vivo, 14 days
[34] = Triticum aestivum (wheat), in vivo, 14 days
[35] = post-emerge, 250 g ai/ha, 14 days after application, rating scale 0-100 (0 no damage, 100 complete death)
[36] = pre-emerge, 250 g ai/ha, 14 days after application, rating scale 0-100 (0 no damage, 100 complete death)

Cn1nc(-c2c(F)cc3c4c2NC(=O)CN4C(=O)C(C)(C)O3)c(Cl)c1C(F)(F)F [1-52, 8-[4-Chloro-1-methyl-5-(trifluoromethyl)-1H-pyrazol-3-yl]-2,2-dimethyl-9-fluoro-5H-pyrazino[1,2,3-de]-1,4-benzoxazine-3,6(2H, 7H)-dione]
Post-emerge Herbicidal Activity XAS (phytotoxicity rating) [1]: 75
Post-emerge crop damage CORN (phytotoxicity rating) [2, 31]: 0
Post-emerge crop damage RICE (phytotoxicity rating) [3, 32]: 0
Pre-emerge Herbicidal Activity IPH (phytotoxicity rating) [4]: 95
Post-emerge Herbicidal Activity AML (phytotoxicity rating) [5]: 60
Pre-emerge crop damage SOY (phytotoxicity rating) [6, 33]: 50
Post-emerge Herbicidal Activity CAO (phytotoxicity rating) [7]: 50
Pre-emerge crop damage RICE (phytotoxicity rating) [8, 32]: 0
Pre-emerge Herbicidal Activity SOH (phytotoxicity rating) [9]: 100
Post-emerge crop damage WHEAT (phytotoxicity rating) [10, 34]: 0
Post-emerge Herbicidal Activity CHA (phytotoxicity rating) [11]: 100
Pre-emerge Herbicidal Activity DIS (phytotoxicity rating) [12]: 80
Pre-emerge Herbicidal Activity ABT (phytotoxicity rating) [13]: 100
Post-emerge crop damage SOY (phytotoxicity rating) [14, 33]: 0
Pre-emerge Herbicidal Activity ECC (phytotoxicity rating) [15]: 85
Pre-emerge crop damage CORN (phytotoxicity rating) [16, 31]: 50
Post-emerge Herbicidal Activity SEV (phytotoxicity rating) [17]: 0
Pre-emerge Herbicidal Activity SEV (phytotoxicity rating) [18]: 90
Pre-emerge Herbicidal Activity CHA (phytotoxicity rating) [19]: 100
Post-emerge Herbicidal Activity ECC (phytotoxicity rating) [20]: 50
Pre-emerge Herbicidal Activity XAS (phytotoxicity rating) [21]: 85
Pre-emerge Herbicidal Activity AML (phytotoxicity rating) [22]: 98
Pre-emerge crop damage WHEAT (phytotoxicity rating) [23, 34]: 0
Post-emerge Herbicidal Activity ABT (phytotoxicity rating) [24]: 100
Pre-emerge Herbicidal Activity CAO (phytotoxicity rating) [25]: 97
Post-emerge Herbicidal Activity DIS (phytotoxicity rating) [26]: 0
Post-emerge Herbicidal Activity SOH (phytotoxicity rating) [27]: 0
Pre-emerge Herbicidal Activity AMR (phytotoxicity rating) [28]: 100
Post-emerge Herbicidal Activity IPH (phytotoxicity rating) [29]: 70
Post-emerge Herbicidal Activity AMR (phytotoxicity rating) [30]: 100

CC1C(=O)Nc2c(-c3nn(C)c(C(F)(F)F)c3Cl)c(F)cc3c2N1C(=O)C(C)(C)O3 (stereo not drawn) [1-54]
Post-emerge Herbicidal Activity XAS (phytotoxicity rating) [1]: 65
Post-emerge crop damage CORN (phytotoxicity rating) [2, 35]: 0
Post-emerge crop damage RICE (phytotoxicity rating) [3, 35]: 0
Pre-emerge Herbicidal Activity IPH (phytotoxicity rating) [4]: 75
Post-emerge Herbicidal Activity AML (phytotoxicity rating) [5]: 80
Pre-emerge crop damage SOY (phytotoxicity rating) [6, 36]: 55
Post-emerge Herbicidal Activity CAO (phytotoxicity rating) [7]: 40
Pre-emerge crop damage RICE (phytotoxicity rating) [8, 36]: 0
Pre-emerge Herbicidal Activity SOH (phytotoxicity rating) [9]: 99
Post-emerge crop damage WHEAT (phytotoxicity rating) [10, 35]: 0
Post-emerge Herbicidal Activity CHA (phytotoxicity rating) [11]: 99
Pre-emerge Herbicidal Activity DIS (phytotoxicity rating) [12]: 95
Pre-emerge Herbicidal Activity ABT (phytotoxicity rating) [13]: 100
Post-emerge crop damage SOY (phytotoxicity rating) [14, 35]: 45
Pre-emerge Herbicidal Activity ECC (phytotoxicity rating) [15]: 85
Pre-emerge crop damage CORN (phytotoxicity rating) [16, 36]: 55
Post-emerge Herbicidal Activity SEV (phytotoxicity rating) [17]: 65
Pre-emerge Herbicidal Activity SEV (phytotoxicity rating) [18]: 98
Pre-emerge Herbicidal Activity CHA (phytotoxicity rating) [19]: 100
Post-emerge Herbicidal Activity ECC (phytotoxicity rating) [20]: 0
Pre-emerge Herbicidal Activity XAS (phytotoxicity rating) [21]: 90
Pre-emerge Herbicidal Activity AML (phytotoxicity rating) [22]: 95
Pre-emerge crop damage WHEAT (phytotoxicity rating) [23, 36]: 0
Post-emerge Herbicidal Activity ABT (phytotoxicity rating) [24]: 100
Pre-emerge Herbicidal Activity CAO (phytotoxicity rating) [25]: 99
Post-emerge Herbicidal Activity DIS (phytotoxicity rating) [26]: 0
Post-emerge Herbicidal Activity SOH (phytotoxicity rating) [27]: 0
Pre-emerge Herbicidal Activity AMR (phytotoxicity rating) [28]: 100
Post-emerge Herbicidal Activity IPH (phytotoxicity rating) [29]: 60
Post-emerge Herbicidal Activity AMR (phytotoxicity rating) [30]: 80
